{
  "source": "paper PMC3763546",
  "about": "“Structural insight into negative DNA supercoiling by DNA gyrase, a bacterial type 2A DNA topoisomerase” (Nucleic Acids Research, 2013)",
  "biological_target": "T1, GyrBA-fus (full-length T. thermophilus DNA gyrase GyrB-GyrA fusion) (Thermus thermophilus, UniProt Q5SHZ4+Q5SIL4)",
  "T1 construct": "full-length GyrB fused at its C-terminus to the N-terminus of full-length GyrA by a G-D-L linker; N-terminal His10 tag with PreScission site; E. coli BL21(DE3); dimer (A2B2 equivalent) of 320377 Da",
  "assay": "native ESI mass spectrometry",
  "format": "binding",
  "details": "200 mM ammonium acetate pH 7.5; two ADPNP per fusion dimer; ATPase domain (GyrB) site; also in the holoenzyme cryo-EM sample (16.9 Å)",
  "data": [
    {"smiles": "Nc1ncnc2c1ncn2[C@@H]1O[C@H](COP(=O)(O)OP(=O)(O)NP(=O)(O)O)[C@@H](O)[C@H]1O", "note": "[ADPNP]", "values": [
      {"measurement": "native ESI mass spectrometry", "result": "showing the addition of two ADPNP molecules per GyrBA-fus dimer"}
    ]}
  ]
}
